{"source": "patent US10758633B2", "about": "“Nanoparticles for magnetic resonance imaging applications” (Massachusetts Institute of Technology, priority 2014, dated 2020)", "assay": "MRI contrast enhancement in blood over time, 1.5 T clinical MRI, mice brain slice", "format": "in vivo", "details": "intravenous injection, T1-weighted", "protocol": "The MRI contrast enhancement of Magnevist® (the most commonly used gadolinium-based contrast agents, GBCAs) and ES-SPIONs in blood were compared over time. According to approved animal protocols, mice were scanned in a 1.5 T clinical MRI machine. After intravenous injection of Magnevist or ES-SPIONs, the T1-weighted images of a single slice in mice brain were taken using clinical MRI sequences (˜3.5 mins time length), and then the half-life of contrast enhancements of both agents were compared side-by-side. […] Left and right images show corresponding side views of the image in the middle. It can be seen in FIG. 6 that a three dimensional profile highlighting the blood vessels in brain was generated.", "data": [{"smiles": "CNC[C@H](O)[C@@H](O)[C@H](O)[C@H](O)CO.CNC[C@H](O)[C@@H](O)[C@H](O)[C@H](O)CO.O=C([O-])CN(CCN(CC(=O)[O-])CC(=O)O)CCN(CC(=O)[O-])CC(=O)O.[Gd+3]", "note": "[Magnevist]", "values": [{"measurement": "half-life of contrast enhancement", "value": "~2", "unit": "min"}]}]}
